According to the supplement of paper PMC10307832:

Assays:
Test in all cases: relative viability (nuclei count vs DMSO), 5 days (fraction); higher = more cells survive
Pictilisib + Trametinib = compound: CS(=O)(=O)N1CCN(Cc2cc3nc(-c4cccc5[nH]ncc45)nc(N4CCOCC4)c3s2)CC1 [Pictilisib] + CC(=O)Nc1cccc(-n2c(=O)n(C3CC3)c(=O)c3c(Nc4ccc(I)cc4F)n(C)c(=O)c(C)c32)c1 [Trametinib] (partner 0.02 µM)
How it was run: (§1)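 Values are medians from duplicate plates. Each reflects relative viability, defined as the nuclei count of treated wells over that of vehicle wells. Lung cancer cell lines in 1536-well plates were pin-tool dosed one day after seeding with one drug alone or with a fixed anchor-drug dose plus five library-drug doses (not always all listed) in √10 steps, then fixed, stained and imaged at 4× after 5 days.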

Pictilisib + Lapatinib = compound: CS(=O)(=O)N1CCN(Cc2cc3nc(-c4cccc5[nH]ncc45)nc(N4CCOCC4)c3s2)CC1 [Pictilisib] + CS(=O)(=O)CCNCc1ccc(-c2ccc3ncnc(Nc4ccc(OCc5cccc(F)c5)c(Cl)c4)c3c2)o1 [Lapatinib] (partner 2 µM)
How it was run: as §1

Pictilisib + Pemetrexed = compound: CS(=O)(=O)N1CCN(Cc2cc3nc(-c4cccc5[nH]ncc45)nc(N4CCOCC4)c3s2)CC1 [Pictilisib] + Nc1nc2[nH]cc(CCc3ccc(C(=O)N[C@@H](CCC(=O)O)C(=O)O)cc3)c2c(=O)[nH]1 [Pemetrexed] (partner 0.2 µM)
How it was run: as §1

MK-2206 + OSI-027 = compound: NC1(c2ccc(-c3nc4ccn5c(=O)[nH]nc5c4cc3-c3ccccc3)cc2)CCC1 [MK-2206] + COc1cccc2cc(-c3nc([C@H]4CC[C@H](C(=O)O)CC4)n4ncnc(N)c34)[nH]c12 [OSI-027] (partner 0.5 µM)
How it was run: as §1

MK-2206 + Phenformin = compound: NC1(c2ccc(-c3nc4ccn5c(=O)[nH]nc5c4cc3-c3ccccc3)cc2)CCC1 [MK-2206] + N=C(N)NC(=N)NCCc1ccccc1 [Phenformin] (partner 250 µM)
How it was run: as §1

Row | Cell Line | relative viability (Pictilisib + Trametinib; first compound 0.02 µM) | relative viability (Pictilisib + Trametinib; first compound 0.06325 µM) | relative viability (Pictilisib + Trametinib; first compound 0.6325 µM) | relative viability (Pictilisib + Trametinib; first compound 2 µM) | relative viability (Pictilisib + Lapatinib; first compound 0.02 µM) | relative viability (Pictilisib + Lapatinib; first compound 0.06325 µM) | relative viability (Pictilisib + Lapatinib; first compound 0.6325 µM) | relative viability (Pictilisib + Lapatinib; first compound 2 µM) | relative viability (Pictilisib + Pemetrexed; first compound 0.02 µM) | relative viability (Pictilisib + Pemetrexed; first compound 0.06325 µM) | relative viability (Pictilisib + Pemetrexed; first compound 0.6325 µM) | relative viability (Pictilisib + Pemetrexed; first compound 2 µM) | relative viability (MK-2206 + OSI-027; first compound 0.01 µM) | relative viability (MK-2206 + OSI-027; first compound 0.03162 µM) | relative viability (MK-2206 + OSI-027; first compound 0.3162 µM) | relative viability (MK-2206 + OSI-027; first compound 1 µM) | relative viability (MK-2206 + Phenformin; first compound 0.01 µM) | relative viability (MK-2206 + Phenformin; first compound 0.03162 µM) | relative viability (MK-2206 + Phenformin; first compound 0.3162 µM) | relative viability (MK-2206 + Phenformin; first compound 1 µM)
1 | LXF-289 | 0.693 | 0.691 | 0.705 | 0.385 | 0.91 | 0.929 | 0.925 | 0.793 | 0.948 | 0.874 | 0.983 | 0.669 | 0.782 | 0.862 | 0.604 | 0.743 | 0.506 | 0.542 | 0.542 | 0.548
2 | NCI-H1792 | 0.505 | 0.346 | 0.305 | 0.102 | 0.923 | 0.928 | 0.809 | 0.387 | 0.924 | 0.954 | 0.553 | 0.177 | 0.718 | 0.824 | 0.686 | 0.622 | 0.329 | 0.351 | 0.161 | 0.184
3 | LU99A | 0.579 | 0.478 | 0.407 | 0.239 | 0.98 | 1.04 | 0.574 | 0.372 | 0.198 | 0.179 | 0.19 | 0.164 | 0.318 | 0.335 | 0.219 | 0.283 | 1.01 | 0.874 | 0.803 | 0.903
4 | SW 1573 | 0.563 | 0.473 | 0.379 | 0.239 | 1.12 | 1.28 | 0.89 | 0.55 | 0.845 | 0.91 | 0.52 | 0.424 | 0.628 | 0.491 | 0.298 | 0.423 | 0.419 | 0.457 | 0.27 | 0.237
5 | COR-L23 | 0.596 | 0.582 | 0.384 | 0.285 | 1.2 | 1.08 | 0.993 | 0.77 | 0.187 | 0.185 | 0.199 | 0.19 | 0.793 | 0.712 | 0.689 | 0.611 | 0.417 | 0.452 | 0.422 | 0.459
6 | NCI-H1755 | 0.821 | 0.667 | 0.718 | 0.327 | 1.04 | 1 | 0.93 | 0.537 | 0.472 | 0.397 | 0.396 | 0.329 | 0.76 | 0.723 | 0.509 | 0.6 | 0.68 | 0.632 | 0.551 | 0.587
7 | LOU-NH91 | 0.867 | 0.715 | 0.68 | 0.567 | 0.787 | 0.733 | 0.621 | 0.525 | 0.381 | 0.368 | 0.4 | 0.372 | 0.72 | 0.695 | 0.668 | 0.555 | 0.682 | 0.727 | 0.683 | 0.555
8 | EMC-BAC-2 | 0.863 | 0.869 | 0.685 | 0.513 | 0.906 | 0.924 | 0.735 | 0.575 | 0.45 | 0.451 | 0.424 | 0.41 | 0.415 | 0.364 | 0.287 | 0.313 | 0.526 | 0.546 | 0.475 | 0.431
9 | NCI-H2023 | 0.52 | 0.404 | 0.315 | 0.172 | 0.78 | 0.611 | 0.349 | 0.243 | 0.195 | 0.228 | 0.171 | 0.105 | 0.407 | 0.366 | 0.208 | 0.227 | 0.398 | 0.416 | 0.343 | 0.271
10 | EKVX | 0.424 | 0.287 | 0.268 | 0.193 | 0.212 | 0.215 | 0.186 | 0.136 | 0.371 | 0.354 | 0.366 | 0.221 | 0.777 | 0.707 | 0.646 | 0.59 | 0.24 | 0.245 | 0.204 | 0.256
11 | NCI-H2085 | 0.443 | 0.471 | 0.2 | 0.26 | 0.767 | 0.767 | 0.535 | 0.391 | 0.826 | 0.911 | 0.401 | 0.303 | 0.676 | 0.819 | 0.474 | 0.365 | 0.713 | 0.834 | 0.681 | 0.59
12 | NCI-H3122 | 0.201 | 0.202 | 0.161 | 0.122 | 1.01 | 1.15 | 1.13 | 0.737 | 0.189 | 0.196 | 0.192 | 0.172 | 0.875 | 0.963 | 0.424 | 0.163 | 0.367 | 0.414 | 0.395 | 0.353
13 | HCC-827 | 0.519 | 0.422 | 0.378 | 0.235 | 0.171 | 0.209 | 0.173 | 0.186 | 0.265 | 0.28 | 0.196 | 0.221 | 0.78 | 0.871 | 0.655 | 0.391 | 0.45 | 0.434 | 0.402 | 0.326
14 | HARA | 0.626 | 0.715 | 0.479 | 0.129 | 0.703 | 0.724 | 0.378 | 0.354 | 0.277 | 0.329 | 0.239 | 0.212 | 0.536 | 0.564 | 0.304 | 0.194 | 0.432 | 0.577 | 0.386 | 0.415
15 | SK-MES-1 | 0.537 | 0.434 | 0.331 | 0.226 | 0.468 | 0.41 | 0.389 | 0.27 | 0.941 | 0.948 | 0.879 | 0.391 | 0.62 | 0.502 | 0.452 | 0.504 | 0.65 | 0.72 | 0.609 | 0.57
